PMC12663734, “Sulfonamine-containing aurone derivatives act as inhibitors of intercellular movement of potato virus Y” (iScience, 2025)
In brackets after ≈: the same amount, converted by molar mass.

Experiments:
[1] = system: PVY; experiment: Anti-PVY curative activity, half-leaf method; details: Potato virus Y, in Chenopodium amaranticolor, 120 h, read-out: Curative effect (%)
Protocol: (§1) Owing to its non-host resistance to PVY, Chenopodium amaranticolor develops a hypersensitive response (HR) within 48–72 hours post-inoculation, producing sharply delimited chlorotic or necrotic local lesions on the inoculated leaves. The number of lesions correlates linearly and positively with virus titre, thereby serving as a quantitative indicator of viral virulence and of the inactivating efficacy of test compounds. The PVY viral extract was rubbed onto the surface of Nicotiana tabacum K326 leaves. After the characteristic symptoms of leaf wrinkling and inward curling appeared, the leaves were harvested and stored at -80°C, then purified according to previously reported methods.[50]^,[51]^,[52] Host leaves were ground to a fine powder in liquid nitrogen, followed by homogenization on ice in 0.5 M phosphate buffer. An equal volume of chloroform:n-butanol (1:1, v/v) corresponding to 10% of the total buffer volume was added, and the mixture was further homogenized on ice. After centrifugation at 10,000g for 20 minutes (4°C), the supernatant was collected as the crude PVY extract. Using 4–5-leaf-stage Chenopodium amaranticolor maintained under optimal growth conditions, a bioassay was conducted with two plants per treatment to systematically evaluate the curative, protective, and inactivating efficacy of the target compound against PVY.[53] […] Each compound was evaluated in three replicates, and the average value was calculated.
Chenopodium amaranticolor was selected as the dead spot host. Excess leaves were first trimmed off, and a uniform layer of carborundum was applied to the leaf surface. The leaves were then inoculated by rubbing with a 1200-fold diluted virus solution. After more than an hour, the carborundum on the leaf surface was washed off with running water, and a 500 μg/mL drug solution was prepared. […] The treated plants were cultivated in a greenhouse for observation, and the number of dead spots on the leaves was counted after approximately 5 days.

[2] = system: PVY; experiment: Anti-PVY protective activity, half-leaf method; details: Potato virus Y, in Chenopodium amaranticolor, 120 h, read-out: Protective effect (%)
Protocol: as §1
In contrast to the antiviral therapeutic activity, the leaves were first treated with the drug solution. A 500 μg/mL drug solution was applied to the right side of the leaves, with the left side serving as a control and treated with a 1% Tween 80 solution. After the leaves had dried under natural conditions, they were placed in a greenhouse for 24 hours before inoculation by rubbing with carborundum, following the same procedures as those for curative activity. After treatment, the plants were maintained in a greenhouse, and the number of local lesions on the inoculated leaves was recorded approximately 5 days.

[3] = system: PVY; experiment: Anti-PVY inactivating activity, half-leaf method; details: for pest or weed control at 500 µg/mL / EC50: Potato virus Y, in Chenopodium amaranticolor; for pest or weed control at 500 µg/mL: 120 h, read-out: Inactivating effect (%), 500 μg/mL; for EC50: read-out: Inactivating effect EC50
Protocol: as §1
Two different dilutions of the virus solution (600-fold and 1200-fold) were prepared, along with a 1000 μg/mL drug solution. The drug solution was mixed with the 600-fold diluted virus solution on ice and incubated for 30 minutes. During the incubation period, the left side of the leaves was treated with a 1200-fold diluted virus solution. After the incubation was completed, the mixed system of drug and virus is inoculated on the right side of the leaf. After waiting for the infection to be completed, the carborundum on the leaf surface was washed off with running water, and the plants were then cultivated in a greenhouse. The number of dead spots on the leaves was counted after approximately 5 days.

[4] = target: T1, PVY CP (Potato virus Y, UniProt P18247); experiment: biochemical; type: binding
T1 construct: 6xHis tag (within the N-terminal pET-32a(+) fusion leader; the Trx and S-tag parts are inferred from the vector and the ~50 kDa band) (N, cleaved yes); made in house; host or cells: Escherichia coli BL21 (DE3) pLysS

[5] = target: T2, PVY CP^P154A (Potato virus Y, UniProt P18247, P2950A); experiment: MST binding to mutant PVY CP^P154A
T2 construct: 6xHis tag (within the N-terminal pET-32a(+) fusion leader; the Trx and S-tag parts are inferred from the vector and the ~50 kDa band) (N, cleaved yes); made in house; host or cells: Escherichia coli BL21 (DE3) pLysS
T2 sequence (P18247 2797-3063 P2950A): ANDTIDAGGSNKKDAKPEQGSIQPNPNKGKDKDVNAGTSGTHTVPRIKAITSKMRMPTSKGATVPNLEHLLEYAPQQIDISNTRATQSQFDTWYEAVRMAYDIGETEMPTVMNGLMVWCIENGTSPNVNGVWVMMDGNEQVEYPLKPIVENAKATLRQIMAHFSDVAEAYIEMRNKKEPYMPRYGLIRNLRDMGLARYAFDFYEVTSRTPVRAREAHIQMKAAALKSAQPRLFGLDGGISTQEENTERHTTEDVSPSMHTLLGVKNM

[6] = system: PVY-GFP; experiment: Systemic infection of PVY-GFP in N. benthamiana (GFP fluorescence, RT-qPCR); type: in vivo, potato virus Y; details: 500 μg/mL, seven dpi
Protocol: To investigate the effect of compound D13 on PVY system infection, we inoculated Nicotiana benthamiana (N. benthamiana) leaves with Agrobacterium carrying the wild-type PVY-GFP. After 24 h, the infiltrated leaves were treated with dimethyl sulfoxide (DMSO) as the negative control group and 500 μg/mL D13 as the treatment group. […] To further confirm reproducibility, an additional independent biological replicate (Figure S4) was uploaded, and the observed trend is consistent with the primary dataset.
Wild-type or mutant viral plasmids were introduced into agrobacterium tumefaciens strain GV3101. Bacterial cultures were grown overnight at 28°C with shaking at 220 rpm, harvested by centrifugation at 8 minutes when OD600 reached 0.6–0.8, and the supernatant was discarded. […] At 7 dpi, GFP fluorescence in leaves was visualized and photographed under 365 nm excitation using a LUYOR handheld UV lamp (LUYOR-3415RG, Luyor Instrument, Shanghai, China). […]
The samples of N. benthamiana infected with Agrobacterium were taken out from the -80°C freezer, small steel beads were added, and they were ground into fine powder with liquid nitrogen to ensure that the cells were completely broken and the nucleic acid components in the cells were released. […] The primers used is recorded in Supporting Information.

[7] = host Chenopodium amaranticolor, average of three replicates

T1 sequence (P18247 2797-3063): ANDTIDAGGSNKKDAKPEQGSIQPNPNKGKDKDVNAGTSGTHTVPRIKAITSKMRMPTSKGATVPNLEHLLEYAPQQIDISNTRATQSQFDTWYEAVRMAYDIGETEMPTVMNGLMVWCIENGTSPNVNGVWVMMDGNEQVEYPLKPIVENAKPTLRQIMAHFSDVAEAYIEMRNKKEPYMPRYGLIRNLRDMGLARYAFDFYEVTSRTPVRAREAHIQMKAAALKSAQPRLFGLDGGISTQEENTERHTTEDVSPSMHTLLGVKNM

Structure (SMILES) | pest or weed control at 500 µg/mL [1] [%] | pest or weed control at 500 µg/mL [2] [%] | pest or weed control at 500 µg/mL [3, 7] [%] | Kd [4] [µM] | Kd [5] [µM] | Inactivating effect (%) ([3]; 500 μg/mL, host Chenopodium amaranticolor, average of three replicates) | EC50 [3] [µg/mL] | accumulation level of PVY RNA in systemic leaves vs DMSO control (100%) ([6]; RT-qPCR) [%] | green fluorescence in stems and young top leaves ([6]; UV illumination)
COc1cc(OC)c(/C=C2\Oc3cc(OCC(=O)NS(=O)(=O)c4ccc(F)cc4)ccc3C2=O)c(OC)c1 [D29] | 36.7 ± 4 | 37.9 ± 2.7 | 57.1 ± 4.3 | – | – | – | – | – | –
NC(=O)c1ncn([C@@H]2O[C@H](CO)[C@@H](O)[C@H]2O)n1 [RBV, ribavirin, reference compound] | 41.9 ± 2.7 | 44.2 ± 3.1 | 59.3 | 50.5 | 210 ± 59.3 | 59.3 ± 3.8 | 213 ± 15.4 (≈ 873 µM) | – | –
COc1ccc(/C=C2\Oc3cc(OCC(=O)NS(=O)(=O)c4ccc(F)cc4)ccc3C2=O)c(OC)c1 [D9] | 45.7 ± 3.3 | 35.6 ± 2.5 | 58.1 ± 5.4 | – | – | – | – | – | –
COc1ccc(/C=C2\Oc3cc(OCC(=O)NS(=O)(=O)c4ccc(F)cc4)ccc3C2=O)cc1 [D10] | 24.4 ± 1.9 | 33.9 ± 4 | 43.7 ± 5 | – | – | – | – | – | –
COc1ccc(/C=C2\Oc3cc(OCC(=O)NS(=O)(=O)c4ccc(Br)cc4)ccc3C2=O)cc1 [D13, (Z)-N-((4-bromophenyl)sulfonyl)-2-((2-(4-methoxybenzylidene)-3-oxo-2,3-dihydrobenzofuran-6-yl)oxy)acetamide] | 53.2 ± 1.6 | 47.7 ± 1.4 | 60 to 80 | 16 | 284 | – | 79.5 ± 3.3 (≈ 146 µM) | 39.8 | almost unobservable
